Key:
Type in all cases: cell-based
Settings in all cases: 24 h incubation, visual reading
[1] = test system: Streptococcus pneumoniae MDR ATCC 700677; assay: MIC assay, S. pneumoniae MDR ATCC 700677
Procedure, shortened: (§1)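 Mid-log cultures in MHB were added at 5×10e5 CFU/mL to compounds diluted twofold from 8 to 0.003 μg/ml. Visual inspection after 24 h incubation at 37° C. gave the MIC, the lowest concentration without visible growth.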

[2] = test system: Enterococcus faecium MDR Van A ATCC 51559; assay: MIC assay, E. faecium MDR Van A ATCC 51559
Procedure, shortened: as §1

[3] = test system: Staphylococcus aureus MRSA ATCC 43300; assay: MIC assay, S. aureus MRSA ATCC 43300
Procedure, shortened: as §1

| Minimum Inhibitory Concentration (MIC) S. pneumoniae ATCC 700677 [1] | Minimum Inhibitory Concentration (MIC) E. faecium ATCC51559 [2] | Minimum Inhibitory Concentration (MIC) Staph. aureus ATCC43300 [3] | SMILES |
| --- | --- | --- | --- |
| xxxx (xxxx = 0.01-<0.1) | xx (xx = 1-4) | xxxx (xxxx = 0.01-<0.1) | CCCCCOc1ccc(C(=O)NC(CCCCN)C(=O)NC(CCCCN)C(=O)NCCCNC(=O)C2NC(=O)C3NC(=O)C(NC(=O)C4NC(=O)C(CC(N)=O)NC(=O)C(NC(=O)C(CC(C)C)NC)C(O)c5ccc(c(Cl)c5)Oc5cc4cc(c5OC4OC(CO)C(O)C(O)C4OC4CC(C)(N)C(O)C(C)O4)Oc4ccc(cc4Cl)C3O)c3ccc(O)c(c3)-c3c(O)cc(O)cc32)cc1 (stereo not drawn) [MCC_005361] |
| x (x = >4) | x (x = >4) | xx (xx = 1-4) | CCC(=O)N[C@@H](CCCCN)C(=O)N[C@@H](CCCCN)C(=O)N[C@@H](CCCCNC(=O)[C@H]1NC(=O)[C@H]2NC(=O)[C@H](NC(=O)[C@@H]3NC(=O)[C@H](CC(N)=O)NC(=O)[C@H](NC(=O)[C@@H](CC(C)C)NC)[C@H](O)c4ccc(c(Cl)c4)Oc4cc3cc(c4O[C@@H]3O[C@H](CO)[C@@H](O)[C@H](O)[C@H]3O[C@H]3C[C@](C)(N)[C@H](O)[C@H](C)O3)Oc3ccc(cc3Cl)[C@H]2O)c2ccc(O)c(c2)-c2c(O)cc(O)cc21)C(=O)O [MCC_005388] |
| xxxxx (xxxxx = <0.01) | xx (xx = 1-4) | xxxxx (xxxxx = <0.01) | CCCCCCCCCC(=O)N[C@@H](CCCNC(=N)N)C(=O)N[C@@H](CCCNC(=N)N)C(=O)NCCCNC(=O)[C@H]1NC(=O)[C@H]2NC(=O)[C@H](NC(=O)[C@@H]3NC(=O)[C@H](CC(N)=O)NC(=O)[C@H](NC(=O)[C@@H](CC(C)C)NC)[C@H](O)c4ccc(c(Cl)c4)Oc4cc3cc(c4O[C@@H]3O[C@H](CO)[C@@H](O)[C@H](O)[C@H]3O[C@H]3C[C@](C)(N)[C@H](O)[C@H](C)O3)Oc3ccc(cc3Cl)[C@H]2O)c2ccc(O)c(c2)-c2c(O)cc(O)cc21 [MCC_005482] |
| xxxxx (xxxxx = <0.01) | xx (xx = 1-4) | xxxxx (xxxxx = <0.01) | CCCCCC1CCC(C(=O)NC(CCCCN)C(=O)NC(CCCCN)C(=O)NCCCNC(=O)C2NC(=O)C3NC(=O)C(NC(=O)C4NC(=O)C(CC(N)=O)NC(=O)C(NC(=O)C(CC(C)C)NC)C(O)c5ccc(c(Cl)c5)Oc5cc4cc(c5OC4OC(CO)C(O)C(O)C4OC4CC(C)(N)C(O)C(C)O4)Oc4ccc(cc4Cl)C3O)c3ccc(O)c(c3)-c3c(O)cc(O)cc32)CC1 (stereo not drawn) [MCC_005485] |
| xxxx (xxxx = 0.01-<0.1) | xx (xx = 1-4) | xxxxx (xxxxx = <0.01) | CCCCCCCCCC(=O)NC(CCCCN)C(=O)NC(CCCNC(=N)N)C(=O)NCCCNC(=O)C1NC(=O)C2NC(=O)C(NC(=O)C3NC(=O)C(CC(N)=O)NC(=O)C(NC(=O)C(CC(C)C)NC)C(O)c4ccc(c(Cl)c4)Oc4cc3cc(c4OC3OC(CO)C(O)C(O)C3OC3CC(C)(N)C(O)C(C)O3)Oc3ccc(cc3Cl)C2O)c2ccc(O)c(c2)-c2c(O)cc(O)cc21 (stereo not drawn) [MCC_005486] |
| xxxx (xxxx = 0.01-<0.1) | xxx (xxx = 0.1-<1) | xxxxx (xxxxx = <0.01) | CCCCCCCCCC(=O)NC(CCCNC(=N)N)C(=O)NC(CCCCN)C(=O)NCCCNC(=O)C1NC(=O)C2NC(=O)C(NC(=O)C3NC(=O)C(CC(N)=O)NC(=O)C(NC(=O)C(CC(C)C)NC)C(O)c4ccc(c(Cl)c4)Oc4cc3cc(c4OC3OC(CO)C(O)C(O)C3OC3CC(C)(N)C(O)C(C)O3)Oc3ccc(cc3Cl)C2O)c2ccc(O)c(c2)-c2c(O)cc(O)cc21 (stereo not drawn) [MCC_005487] |
| xx (xx = 1-4) | x (x = >4) | xx (xx = 1-4) | CN[C@H](CC(C)C)C(=O)N[C@H]1C(=O)N[C@@H](CC(N)=O)C(=O)N[C@H]2C(=O)N[C@H]3C(=O)N[C@H](C(=O)N[C@H](C(=O)NCCCC[C@H](NC(=O)[C@H](CCCCN)NC(=O)[C@H](CCCCN)NC(=O)CCCOc4ccccc4)C(=O)O)c4cc(O)cc(O)c4-c4cc3ccc4O)[C@H](O)c3ccc(c(Cl)c3)Oc3cc2cc(c3O[C@@H]2O[C@H](CO)[C@@H](O)[C@H](O)[C@H]2O[C@H]2C[C@](C)(N)[C@H](O)[C@H](C)O2)Oc2ccc(cc2Cl)[C@H]1O [MCC_005501] |
| xx (xx = 1-4) | x (x = >4) | xx (xx = 1-4) | CN[C@H](CC(C)C)C(=O)N[C@H]1C(=O)N[C@@H](CC(N)=O)C(=O)N[C@H]2C(=O)N[C@H]3C(=O)N[C@H](C(=O)N[C@H](C(=O)NCCCC[C@H](NC(=O)[C@H](CCCCN)NC(=O)[C@H](CCCCN)NC(=O)CC4CCCCC4)C(=O)O)c4cc(O)cc(O)c4-c4cc3ccc4O)[C@H](O)c3ccc(c(Cl)c3)Oc3cc2cc(c3O[C@@H]2O[C@H](CO)[C@@H](O)[C@H](O)[C@H]2O[C@H]2C[C@](C)(N)[C@H](O)[C@H](C)O2)Oc2ccc(cc2Cl)[C@H]1O [MCC_005502] |
| xxxx (xxxx = 0.01-<0.1) | xx (xx = 1-4) | xxxx (xxxx = 0.01-<0.1) | CCCCCC1CCC(C(=O)N[C@@H](CCCCN)C(=O)N[C@@H](CCCCN)C(=O)N[C@@H](CCCCNC(=O)[C@H]2NC(=O)[C@H]3NC(=O)[C@H](NC(=O)[C@@H]4NC(=O)[C@H](CC(N)=O)NC(=O)[C@H](NC(=O)[C@@H](CC(C)C)NC)[C@H](O)c5ccc(c(Cl)c5)Oc5cc4cc(c5O[C@@H]4O[C@H](CO)[C@@H](O)[C@H](O)[C@H]4O[C@H]4C[C@](C)(N)[C@H](O)[C@H](C)O4)Oc4ccc(cc4Cl)[C@H]3O)c3ccc(O)c(c3)-c3c(O)cc(O)cc32)C(=O)O)CC1 (stereo partly drawn) [MCC_005503] |
| xxx (xxx = 0.1-<1) | x (x = >4) | xxx (xxx = 0.1-<1) | CCCCCOc1ccc(C(=O)N[C@@H](CCCCN)C(=O)N[C@@H](CCCCN)C(=O)N[C@@H](CCCCNC(=O)[C@H]2NC(=O)[C@H]3NC(=O)[C@H](NC(=O)[C@@H]4NC(=O)[C@H](CC(N)=O)NC(=O)[C@H](NC(=O)[C@@H](CC(C)C)NC)[C@H](O)c5ccc(c(Cl)c5)Oc5cc4cc(c5O[C@@H]4O[C@H](CO)[C@@H](O)[C@H](O)[C@H]4O[C@H]4C[C@](C)(N)[C@H](O)[C@H](C)O4)Oc4ccc(cc4Cl)[C@H]3O)c3ccc(O)c(c3)-c3c(O)cc(O)cc32)C(=O)O)cc1 [MCC_005504] |
| xx (xx = 1-4) | x (x = >4) | xx (xx = 1-4) | CN[C@H](CC(C)C)C(=O)N[C@H]1C(=O)N[C@@H](CC(N)=O)C(=O)N[C@H]2C(=O)N[C@H]3C(=O)N[C@H](C(=O)N[C@H](C(=O)NCCCC[C@H](NC(=O)[C@H](CCCCN)NC(=O)[C@H](CCCCN)NC(=O)c4ccc(Cl)cc4)C(=O)O)c4cc(O)cc(O)c4-c4cc3ccc4O)[C@H](O)c3ccc(c(Cl)c3)Oc3cc2cc(c3O[C@@H]2O[C@H](CO)[C@@H](O)[C@H](O)[C@H]2O[C@H]2C[C@](C)(N)[C@H](O)[C@H](C)O2)Oc2ccc(cc2Cl)[C@H]1O [MCC_005505] |
| xxx (xxx = 0.1-<1) | x (x = >4) | xxx (xxx = 0.1-<1) | CCCCCCC[C@H](O)CC(=O)N[C@@H](CCCCN)C(=O)N[C@@H](CCCCN)C(=O)N[C@@H](CCCCNC(=O)[C@H]1NC(=O)[C@H]2NC(=O)[C@H](NC(=O)[C@@H]3NC(=O)[C@H](CC(N)=O)NC(=O)[C@H](NC(=O)[C@@H](CC(C)C)NC)[C@H](O)c4ccc(c(Cl)c4)Oc4cc3cc(c4O[C@@H]3O[C@H](CO)[C@@H](O)[C@H](O)[C@H]3O[C@H]3C[C@](C)(N)[C@H](O)[C@H](C)O3)Oc3ccc(cc3Cl)[C@H]2O)c2ccc(O)c(c2)-c2c(O)cc(O)cc21)C(=O)O [MCC_005506] |

| SMILES | Minimum Inhibitory Concentration (MIC) S. pneumoniae ATCC 700677 [1] | Minimum Inhibitory Concentration (MIC) E. faecium ATCC51559 [2] | Minimum Inhibitory Concentration (MIC) Staph. aureus ATCC43300 [3] |
| --- | --- | --- | --- |
| CCCCCCCCCC(=O)N[C@@H](CCCNC(=N)N)C(=O)N1CCC(CNC(=O)[C@H]2NC(=O)[C@H]3NC(=O)[C@H](NC(=O)[C@@H]4NC(=O)[C@H](CC(N)=O)NC(=O)[C@H](NC(=O)[C@@H](CC(C)C)NC)[C@H](O)c5ccc(c(Cl)c5)Oc5cc4cc(c5O[C@@H]4O[C@H](CO)[C@@H](O)[C@H](O)[C@H]4O[C@H]4C[C@](C)(N)[C@H](O)[C@H](C)O4)Oc4ccc(cc4Cl)[C@H]3O)c3ccc(O)c(c3)-c3c(O)cc(O)cc32)CC1 [MCC_005484] | xxxxx (xxxxx = <0.01) | x (x = >4) | xxxxx (xxxxx = <0.01) |
| CCCCCCCCCC(=O)N[C@@H](CCCCN)C(=O)N1CCC(CNC(=O)[C@H]2NC(=O)[C@H]3NC(=O)[C@H](NC(=O)[C@@H]4NC(=O)[C@H](CC(N)=O)NC(=O)[C@H](NC(=O)[C@@H](CC(C)C)NC)[C@H](O)c5ccc(c(Cl)c5)Oc5cc4cc(c5O[C@@H]4O[C@H](CO)[C@@H](O)[C@H](O)[C@H]4O[C@H]4C[C@](C)(N)[C@H](O)[C@H](C)O4)Oc4ccc(cc4Cl)[C@H]3O)c3ccc(O)c(c3)-c3c(O)cc(O)cc32)CC1 [MCC_005488] | xxxx (xxxx = 0.01-<0.1) | xx (xx = 1-4) | xxxx (xxxx = 0.01-<0.1) |

— US10947271B2, “Antibacterial agents” (THE UNIVERSITY OF QUEENSLAND, priority 2014, dated 2021)
